From patent US20180140602A1, “COMBINATION OF CHIMERIC ANTIGEN RECEPTOR THERAPY AND AMINO PYRIMIDINE DERIVATIVES” (Novartis AG, priority 2015, published 2018) come the findings set out here.

The structures appear in SMILES notation.

The target in this test is T1, BTK (Homo sapiens, UniProt Q06187).
T1 construct: Whole blood was collected with written consent from healthy volunteers by venipuncture into sodium heparin vials; endogenous in cells; host or cells: B cells in heparinised whole blood of healthy human volunteers
T1 sequence (Q06187 whole entry): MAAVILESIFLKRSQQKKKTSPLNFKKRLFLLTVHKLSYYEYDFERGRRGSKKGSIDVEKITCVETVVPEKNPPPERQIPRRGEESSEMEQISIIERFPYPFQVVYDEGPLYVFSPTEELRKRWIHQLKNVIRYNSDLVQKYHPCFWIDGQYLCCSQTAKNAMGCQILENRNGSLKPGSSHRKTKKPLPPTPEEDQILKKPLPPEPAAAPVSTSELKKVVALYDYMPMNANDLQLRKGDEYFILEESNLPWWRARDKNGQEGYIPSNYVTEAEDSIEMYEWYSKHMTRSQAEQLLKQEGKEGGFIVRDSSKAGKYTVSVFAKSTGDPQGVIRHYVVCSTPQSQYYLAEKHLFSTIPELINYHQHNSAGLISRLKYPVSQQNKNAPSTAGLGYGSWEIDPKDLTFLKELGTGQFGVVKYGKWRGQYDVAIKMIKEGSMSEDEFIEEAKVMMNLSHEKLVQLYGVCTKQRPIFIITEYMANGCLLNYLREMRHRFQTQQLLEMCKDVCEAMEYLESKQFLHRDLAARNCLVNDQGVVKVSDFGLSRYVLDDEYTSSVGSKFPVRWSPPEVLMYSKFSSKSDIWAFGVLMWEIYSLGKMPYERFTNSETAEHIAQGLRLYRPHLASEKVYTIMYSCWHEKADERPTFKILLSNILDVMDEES
As to the kind of experiment: Inhibition of BTK activity in blood (anti-IgM/IL-4 B cell activation, CD69).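 Note: heparinized blood from healthy donors, read by flow cytometry, with inhibition derived from the percentage of CD69-positive cells within the CD19-positive lymphocyte gate.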 The format is cell-based. The conditions noted are these: human whole blood, anti-IgM/IL-4, CD69 on CD19+ cells, 20 hours.
The IC50 is the midpoint of a concentration-inhibition curve. For `C#CC(=O)N1CC[C@H]1COc1c(N)ncnc1-c1cc(F)cc(NC(=O)c2ccc(C3CC3)cc2F)c1C` [Example 34], the IC50 is 208 nM.
Next, `C=CC(=O)N(C)CCOc1c(N)ncnc1-c1cccc(-n2ccc3cc(C4CC4)cc(F)c3c2=O)c1` [Example 12, N-(2-((4-Amino-6-(3-(6-cyclopropyl-8-fluoro-1-oxoisoquinolin-2(1H)-yl)phenyl)pyrimidin-5-yl)oxy)ethyl)-N-methylacrylamide]: 459 nM; `C=CC(=O)N(C)CCOc1c(N)ncnc1-c1cc(F)cc(N2CCc3cc(C4CC4)ccc3C2=O)c1CO` [Example 25, N-(2-((4-Amino-6-(3-(6-cyclopropyl-1-oxo-3,4-dihydroisoquinolin-2(1H)-yl)-5-fluoro-2-(hydroxymethyl)phenyl)pyrimidin-5-yl)oxy)ethyl)-N-methylacrylamide]: 65 nM.
Next, `C=CC(=O)N1C[C@H](OC)C[C@H]1COc1c(N)ncnc1-c1cc(F)cc(N2CCc3cc(C4CC4)ccc3C2=O)c1CO` [Example 28, 2-(3-(5-(((2S,4R)-1-Acryloyl-4-methoxypyrrolidin-2-yl)methoxy)-6-aminopyrimidin-4-yl)-5-fluoro-2-(hydroxymethyl)phenyl)-6-cyclopropyl-3,4-dihydroisoquinolin-1(2H)-one]: 33 nM; `Cc1c(NC(=O)c2ccc(C3CC3)cc2F)cc(F)cc1-c1ncnc(N)c1OCCN(C)C(=O)C1CO1` (stereo not shown) [Example 11, N-(2-((4-Amino-6-(3-(4-cyclopropyl-2-fluorobenzamido)-5-fluoro-2-methylphenyl)pyrimidin-5-yl)oxy)ethyl)-N-methyloxirane-2-carboxamide]: 323 nM.
`CC#CC(=O)N1C[C@H](F)C[C@H]1COc1c(N)ncnc1-c1cc(F)cc(NC(=O)c2ccc(C3CC3)cc2F)c1C` [Example 32, N-(3-(6-Amino-5-(((2S,4R)-1-(but-2-ynoyl)-4-fluoropyrrolidin-2-yl)methoxy)pyrimidin-4-yl)-5-fluoro-2-methylphenyl)-4-cyclopropyl-2-fluorobenzamide] came in with an IC50 of 55 nM.
The value for `C/C=C/C(=O)N1CC(Oc2c(N)ncnc2-c2cc(F)cc(NC(=O)c3ccc(C4CC4)cc3F)c2C)C1` [Example 2, (E)-N-(3-(6-Amino-5-((1-(but-2-enoyl)azetidin-3-yl)oxy)pyrimidin-4-yl)-5-fluoro-2-methylphenyl)-4-cyclopropyl-2-fluorobenzamide] was 1110 nM; that for `C=CC(=O)N(CCF)CCOc1c(N)ncnc1-c1cc(F)cc(NC(=O)c2ccc(C3CC3)cc2F)c1C` [Example 15, N-(3-(6-Amino-5-(2-(N-(2-fluoroethyl)acrylamido)ethoxy)pyrimidin-4-yl)-5-fluoro-2-methylphenyl)-4-cyclopropyl-2-fluorobenzamide] was 29 nM.
Next, `C=CC(=O)N1C[C@H](F)C[C@H]1COc1c(N)ncnc1-c1cc(F)cc(NC(=O)c2ccc(C3CC3)cc2F)c1C` [Example 31, N-(3-(5-(((2S,4R)-1-Acryloyl-4-fluoropyrrolidin-2-yl)methoxy)-6-aminopyrimidin-4-yl)-5-fluoro-2-methylphenyl)-4-cyclopropyl-2-fluorobenzamide]: 25 nM.
`C=CC(=O)N1C[C@@H](C#N)C[C@H]1COc1c(N)ncnc1-c1cc(F)cc(NC(=O)c2ccc(C3CC3)cc2F)c1C` [Example 40, N-(3-(5-(((2S,4S)-1-Acryloyl-4-cyanopyrrolidin-2-yl)methoxy)-6-aminopyrimidin-4-yl)-5-fluoro-2-methylphenyl)-4-cyclopropyl-2-fluorobenzamide] returned a 50% inhibitory concentration (IC50) of 80 nM.
The value for `C#CC(=O)N1CC(Oc2c(N)ncnc2-c2cc(F)cc(NC(=O)c3ccc(C4CC4)cc3F)c2C)C1` [Example 3, N-(3-(6-Amino-5-((1-propioloylazetidin-3-yl)oxy)pyrimidin-4-yl)-5-fluoro-2-methylphenyl)-4-cyclopropyl-2-fluorobenzamide] was 124 nM.
Next, `CC#CC(=O)N1CC(Oc2c(N)ncnc2-c2cc(F)cc(NC(=O)c3ccc(C4CC4)cc3F)c2C)C1` [Example 4, N-(3-(6-Amino-5-((1-(but-2-ynoyl)azetidin-3-yl)oxy)pyrimidin-4-yl)-5-fluoro-2-methylphenyl)-4-cyclopropyl-2-fluorobenzamide]: 376 nM; `C=CC(=O)N1C[C@H](OC)C[C@H]1COc1c(N)ncnc1-c1cc(F)cc(NC(=O)c2ccc(C3CC3)cc2F)c1C` [Example 26, N-(3-(5-(((2S,4R)-1-Acryloyl-4-methoxypyrrolidin-2-yl)methoxy)-6-aminopyrimidin-4-yl)-5-fluoro-2-methylphenyl)-4-cyclopropyl-2-fluorobenzamide]: 51 nM.
The value for `C=CC(=O)N1CCC[C@@H](COc2c(N)ncnc2-c2cc(F)cc(NC(=O)c3ccc(C4CC4)cc3F)c2C)C1` [Example 37, (R)—N-(3-(5-((1-Acryloylpiperidin-3-yl)methoxy)-6-aminopyrimidin-4-yl)-5-fluoro-2-methylphenyl)-4-cyclopropyl-2-fluorobenzamide] was 968 nM; that for `CC#CC(=O)N1CCC[C@H]1COc1c(N)ncnc1-c1cc(F)cc(NC(=O)c2ccc(C3CC3)cc2F)c1C` [Example 23] was 57 nM.
For the compound `C=CC(=O)N1C[C@H](C#N)C[C@H]1COc1c(N)ncnc1-c1cc(F)cc(NC(=O)c2ccc(C3CC3)cc2F)c1C` [Example 39, N-(3-(5-(((2S,4R)-1-Acryloyl-4-cyanopyrrolidin-2-yl)methoxy)-6-aminopyrimidin-4-yl)-5-fluoro-2-methylphenyl)-4-cyclopropyl-2-fluorobenzamide], the IC50 worked out at 176 nM.
Next, `C=CC(=O)N1CCC[C@H]1COc1c(N)ncnc1-c1cc(F)cc(N2CCc3cc(C4CC4)ccc3C2=O)c1CO` [Example 24, (S)-2-(3-(5-((1-Acryloylpyrrolidin-2-yl)methoxy)-6-aminopyrimidin-4-yl)-5-fluoro-2-(hydroxymethyl)phenyl)-6-cyclopropyl-3,4-dihydroisoquinolin-1(2H)-one]: 32 nM; `C=CC(=O)N[C@@H](C)COc1c(N)ncnc1-c1cc(F)cc(NC(=O)c2ccc(C3CC3)cc2F)c1C` [Example 17, (S)—N-(3-(5-(2-Acrylamidopropoxy)-6-aminopyrimidin-4-yl)-5-fluoro-2-methylphenyl)-4-cyclopropyl-2-fluorobenzamide]: 246 nM.
With `CC#CC(=O)N[C@@H](C)COc1c(N)ncnc1-c1cc(F)cc(NC(=O)c2ccc(C3CC3)cc2F)c1C` [Example 18], inhibition was half-maximal at 419 nM (IC50).
Take `C=CC(=O)N1C[C@@H](OC)C[C@H]1COc1c(N)ncnc1-c1cc(F)cc(NC(=O)c2ccc(C3CC3)cc2F)c1C` [Example 29, N-(3-(5-(((2S,4S)-1-Acryloyl-4-methoxypyrrolidin-2-yl)methoxy)-6-aminopyrimidin-4-yl)-5-fluoro-2-methylphenyl)-4-cyclopropyl-2-fluorobenzamide]: the concentration for half-maximal inhibition (IC50) was found to be 134 nM.
`COC/C=C/C(=O)N(C)CCOc1c(N)ncnc1-c1cc(F)cc(NC(=O)c2ccc(C3CC3)cc2F)c1C` [Example 9, (E)-N-(3-(6-Amino-5-(2-(4-methoxy-N-methylbut-2-enamido)ethoxy)pyrimidin-4-yl)-5-fluoro-2-methylphenyl)-4-cyclopropyl-2-fluorobenzamide]: the half-inhibitory concentration (IC50) turned out to be 240 nM.
Compound `CC#CC(=O)N(C)[C@@H](C)COc1c(N)ncnc1-c1cc(F)cc(NC(=O)c2ccc(C3CC3)cc2F)c1C` [Example 20] yielded an IC50 of 330 nM.
In turn, `C=CC(=O)N(C)[C@@H](C)COc1c(N)ncnc1-c1cc(F)cc(NC(=O)c2ccc(C3CC3)cc2F)c1C` [Example 19, (S)—N-(3-(6-Amino-5-(2-(N-methylacrylamido)propoxy)pyrimidin-4-yl)-5-fluoro-2-methylphenyl)-4-cyclopropyl-2-fluorobenzamide] came in with a concentration for half-maximal inhibition (IC50) of 136 nM.
Next, `C=CC(=O)N1CC[C@H](OC)[C@H]1COc1c(N)ncnc1-c1cc(F)cc(NC(=O)c2ccc(C3CC3)cc2F)c1C` [Example 38, N-(3-(5-(((2R,3S)-1-Acryloyl-3-methoxypyrrolidin-2-yl)methoxy)-6-aminopyrimidin-4-yl)-5-fluoro-2-methylphenyl)-4-cyclopropyl-2-fluorobenzamide]: 70 nM; `C=CC(=O)N1CC[C@H]1COc1c(N)ncnc1-c1cc(F)cc(N2CCc3cc(C4CC4)ccc3C2=O)c1CO` [Example 35, (S)-2-(3-(5-((1-Acryloylazetidin-2-yl)methoxy)-6-aminopyrimidin-4-yl)-5-fluoro-2-(hydroxymethyl)phenyl)-6-cyclopropyl-3,4-dihydroisoquinolin-1(2H)-one]: 72 nM.
Turning to `CC#CC(=O)N1C[C@@H](OC)C[C@H]1COc1c(N)ncnc1-c1cc(F)cc(NC(=O)c2ccc(C3CC3)cc2F)c1C` [Example 30, N-(3-(6-Amino-5-(((2S,4S)-1-(but-2-ynoyl)-4-methoxypyrrolidin-2-yl)methoxy)pyrimidin-4-yl)-5-fluoro-2-methylphenyl)-4-cyclopropyl-2-fluorobenzamide], half-maximal inhibition (IC50) was put at 222 nM.
The value for `CC#CC(=O)N1C[C@H](OC)C[C@H]1COc1c(N)ncnc1-c1cc(F)cc(NC(=O)c2ccc(C3CC3)cc2F)c1C` [Example 27, N-(3-(6-Amino-5-(((2S,4R)-1-(but-2-ynoyl)-4-methoxypyrrolidin-2-yl)methoxy)pyrimidin-4-yl)-5-fluoro-2-methylphenyl)-4-cyclopropyl-2-fluorobenzamide] was 76 nM; that for `C=CC(=O)NC1(COc2c(N)ncnc2-c2cc(F)cc(NC(=O)c3ccc(C4CC4)cc3F)c2C)CC1` [Example 16, N-(3-(5-((1-Acrylamidocyclopropyl)methoxy)-6-aminopyrimidin-4-yl)-5-fluoro-2-methylphenyl)-4-cyclopropyl-2-fluorobenzamide] was 558 nM.
